Data as given in patent US9192656B2, “Methods and compositions for the treatment of cancer” (QUINTESSENCE BIOSCIENCES, INC., priority 2006, dated 2015).
Numbering of substitutions follows the chain as printed. Names may count otherwise. One block for each molecule: values may come before it.

What was measured:
[1] = test system: human breast cancer cell line (MDA-MB-231); experiment: In vivo inhibition of tumor growth, MDA-MB-231 xenograft; set-up: species or system human tumor cells in nude mice; details: Example 10, Table 14, female mice, RNase 1 75 mg/kg 1×wk, doxorubicin 3 mg/kg once per week
Description: (§1) Cells from a non-small cell lung cancer cell line (A549) were grown in nine T175 flasks in F12K media and 10% fetal calf serum until the cells were confluent. 4.5×10^6 cells (in 100 microliters) were injected into the right rear flank of 4-5 week old male homozygous (nu/nu) nude mice (Harlan, Madison Wis.). Tumors were allowed to grow to an average size of ≧75 mm^3 before treatments were initiated. Animals of each tumor type, with the properly sized tumors, were divided into treatment groups, including one set of animals treated weekly with vehicle (phosphate buffered saline, PBS). The vehicle and the test agents were all administered by intraperitoneal injection. Each animal was weighed twice a week during treatment. The tumors were measured twice weekly using calipers. Tumor volume (mm^3) was determined by using the formula for an ellipsoid sphere: […]
(§2) The percent tumor growth inhibition (% TGI) is calculated by: […]
The xenograft model of this example was set up as in the previous example except that a human breast cancer cell line (MDA-MB-231) and female mice were used. The efficacy of wild type human RNase 1 is shown relative to doxorubicin. The RNase 1 was administered at 75 mg per kg of body weight of the animal once per week (75 mg/kg 1×wk), while the doxorubicin was given at 3 mg/kg once per week. The value of n represents the number of animals in the specific treatment arm of the experiment.

[2] = test system: human prostate cancer cell line (DU145); experiment: In vivo inhibition of tumor growth, DU145 xenograft; set-up: species or system human tumor cells in nude mice; details: Example 4, Table 8, RNase 1 75 mg/kg 1×wk, docetaxel 8 mg/kg once a week
Description: as §1, §2
This xenograft model was set up as in the previous example except that a human prostate cancer cell line (DU145) was used. The efficacy of wild type human RNase 1 is shown relative to docetaxel. The RNase 1 was administered at 75 mg per kg of body weight of the animal (75 mg/kg 1×wk), while the docetaxel was used at 8 mg/kg once a week. The value of n represents the number of animals in the specific treatment arm of the experiment.
(§3) The xenograft model of this example was set up as in the previous example except that a human prostate cancer cell line (DU145) was used. The efficacy of wild type human RNase 1 is shown. The RNase 1 was administered at 75 mg per kg of body weight of the animal once per week (75 mg/kg 1×wk). The value of n represents the number of animals in the specific treatment arm of the experiment.
as §3, with “example.” for “example except that a human prostate cancer cell line (DU145) was used.”, “three different doses: (1) 15” for “75”, “(15” for “(75”, “1×wk), (2) 75 mg/kg 1×wk, or (3) 300 mg/kg 1×wk.” for “1×wk).”

[3] = Clinical chemistry and complete blood count plus platelets (DU145 xenograft mice); type: in vivo
Description: Clinical chemistry and a complete blood count (CBC) plus platelets were performed on whole blood and serum samples collected from the mice 24 hours after the last treatment of the prostate xenograft model above. […] Creatinine was also tested and found not to differ. The levels of the liver enzymes, gamma glutamyl transferase (GGT) and alanine transaminase (ALT) in all treatment groups were similar (GGT data not shown.). The values were determined for the various treatment groups of the prostate (DU145) xenograft study for clinical chemistry (A., B.), complete blood count (C., D.), and platelets (F.). Abbreviations: TCO2, amount of bicarbonate ion (HCO3^−); Anion Gap, [Na+K]—[Cl+HCO3]; ALT, alanine aminotransferase; WBC, white blood count; RBC, red blood count; HGB, hemoglobin; RBC HGB, (CHCM×RBC×MCV)/1000); MCH, mean corpuscular hemoglobin; MCHC, mean corpuscular hemoglobin concentration; RDW, red cell distribution width; MPV, mean platelet volume; HCT, hematocrit; MCV, mean corpuscular volume.

[4] = test system: non-small cell lung cancer cell line (A549); experiment: In vivo inhibition of tumor growth, A549 xenograft; set-up: species or system human tumor cells in nude mice; details: for Starting volume: at start
Description: Cells from a non-small cell lung cancer cell line (A549) were grown in nine T175 flasks in F12K media and 10% fetal calf serum until the cells were confluent. 4.5×10^6 cells (in 100 microliters) were injected into the right rear flank of 4-5 week old male homozygous (nu/nu) nude mice (Harlan, Madison Wis.). Tumors were allowed to grow to an average size of ≧75 mm^3 before treatments were initiated. Animals of each tumor type, with the properly sized tumors, were divided into treatment groups, including one set of animals treated weekly with vehicle (phosphate buffered saline, PBS). The vehicle and the test agents were all administered by intraperitoneal injection. Each animal was weighed twice a week during treatment. The tumors were measured twice weekly using calipers. Tumor volume (mm^3) was determined by using the formula for an ellipsoid sphere:
[formula] The efficacy of wild type human RNase 1 is shown relative to cisplatin. The RNase 1 was administered at 75 mg per kg of body weight of the animal once a week (75 mg/kg 1×wk), while the cisplatin was used at 6 mg/kg once a week. The value of n represents the number of animals in the specific treatment arm of the experiment.
as §2
The xenograft model of this example was set up with the human non-small cell lung cancer cell line (A549) as in the previous examples. The efficacy of wild type human RNase 1 is shown relative to tarceva. The RNase 1 was administered at 75 mg per kg of body weight of the animal (75 mg/kg 1×wk) or 150 mg/kg 1×wk. Tarceva was given orally with doses of 50 mg/kg twice a week. The value of n represents the number of animals in the specific treatment arm of the experiment.

[5] = test system: human pancreatic cancer cell line (B×PC-3); experiment: In vivo inhibition of tumor growth, BxPC-3 xenograft; set-up: species or system human tumor cells in nude mice; details: Example 5, Table 9, RNase 1 15 mg/kg qd×5, gemcite 60 mg/kg twice a week
Description: as §1, §2
The xenograft model of this example was set up as in the previous example except that a human pancreatic cancer cell line (B×PC-3) was used. The efficacy of wild type human RNase 1 is shown relative to gemcite. The RNase 1 was administered at 15 mg per kg of body weight of the animal five times per week (15 mg/kg qd×5), while the gemcite was used at 60 mg/kg twice a week. The value of n represents the number of animals in the specific treatment arm of the experiment.
as §3, with “pancreatic” for “prostate”, “(B×PC-3)” for “(DU145)”, “three different doses: (1) 30” for “75”, “(30” for “(75”, “1×wk), (2) 75 mg/kg 1×wk, or (3) 150 mg/kg 1×wk.” for “1×wk).”

[6] = test system: non-small cell lung cancer; experiment: Xenograft models of non-small cell lung cancer (RNase 1 variants); type: in vivo, mice; details: for (Final − start)/Control: relative to vehicle; for Starting volume: tumor volume at start; for tumor growth inhibition (in words): xenograft model of non-small cell lung cancer
Description: as §1, §2

[7] = Example 6, Table 10, orally 50 mg/kg twice a week
[8] = Example 3, Table 7, i.p., RNase 1 75 mg/kg 1×wk, cisplatin 6 mg/kg once a week

Molecule: COc1cccc2c1C(=O)c1c(O)c3c(c(O)c1C2=O)C[C@@](O)(C(=O)CO)C[C@@H]3O[C@H]1C[C@H](N)[C@H](O)[C@H](C)O1 [doxorubicin, reference compound]
% TGI [1]: 84%
(Final − start) [1]: 22 mm^3
(Final − start)/Control [1]: 0.16
Final volume [1]: 86 mm^3
Starting volume ([1]; at start): 64 mm^3

Creatinine versus vehicle ([3]; 24 hours after the last treatment): not to differ
Clinical chemistry and complete blood count plus platelets, all tests, versus vehicle ([3]; whole blood and serum 24 hours after the last treatment, Mann-Whitney U test): not to be significantly different
Molecule: CC(=O)O[C@@]12CO[C@@H]1C[C@H](O)[C@@]1(C)C(=O)[C@H](O)C3=C(C)[C@@H](OC(=O)[C@H](O)[C@@H](NC(=O)OC(C)(C)C)c4ccccc4)C[C@@](O)([C@@H](OC(=O)c4ccccc4)[C@H]21)C3(C)C [Docetaxel, (2R,3S)-N-carboxy-3-phenylisoserine, N-tert-butyl ester, 13-ester with 5b-20-epoxy-12a,4,7b,10b,13a-hexahydroxytax-11-en-9-one 4-acetate 2-benzoate, trihydrate, reference compound]
% TGI [2]: 92%
(Final − start) [2]: 180 mm^3
(Final − start)/Control [2]: 0.08
Final volume [2]: 249 mm^3
Starting volume ([2]; at start): 60 mm^3

Molecule: C#Cc1cccc(Nc2ncnc3cc(OCCOC)c(OCCOC)cc23)c1 [Tarceva, N-(3-ethynylphenyl)-6,7-bis(2-methoxyethoxy)quinazolin-4-amine, reference compound]
% TGI [4, 7]: 77%
(Final − start) [4, 7]: 181 mm^3
(Final − start)/Control [4, 7]: 0.23
Final volume [4, 7]: 265 mm^3
Starting volume [4, 7]: 84 mm^3

Molecule: Nc1ccn([C@@H]2O[C@H](CO)[C@@H](O)C2(F)F)c(=O)n1 [Gemcite, reference compound]
% TGI [5]: 60%
(Final − start) [5]: 427 mm^3
(Final − start)/Control [5]: 0.40
Final volume [5]: 505 mm^3
Starting volume ([5]; at start): 78 mm^3

Molecule: N.N.[Cl][Pt][Cl] [cisplatin, Cisplatin, reference compound]
% TGI [4, 8]: 81%
(Final − start) [4, 8]: 58 mm^3
(Final − start)/Control [4, 8]: 0.19
Final volume [4, 8]: 130 mm^3
Starting volume [4, 8]: 72 mm^3
% TGI ([6]; Table 2, FIG. 1): 68%
(Final − start) ([6]; Table 2, FIG. 1): 290 mm^3
Final volume ([6]; Table 2, FIG. 1): 369 mm^3
(Final − start)/Control ([6]; Table 2, FIG. 1): 0.32
Starting volume ([6]; Table 2, FIG. 1): 79 mm^3

B1: G38R/R39D/L86E/N88R/G89D/R91D RNase 1: variant of human RNase 1 with substitutions G38R, R39D, L86E, N88R, G89D, R91D (protein)
chain: KESRAKKFQRQHMDSDSSPSSSSTYCNQMMRRRNMTQRDCKPVNTFVHEPLVDVQNVCFQEKVTCKNGQGNCYKSNSSMHITDCRETRDSDYPNCAYRTSPKERHIIVACEGSPYVPVHFDASVEDST
% TGI ([6]; Table 2, FIG. 1): 28%
(Final − start) ([6]; Table 2, FIG. 1): 647 mm^3
Final volume ([6]; Table 2, FIG. 1): 723 mm^3
(Final − start)/Control ([6]; Table 2, FIG. 1): 0.72
Starting volume ([6]; Table 2, FIG. 1): 76 mm^3
tumor growth inhibition (in words) [6]: displayed tumor growth inhibition

B2: R4C/K7A/G38R/R39D/L86E/N88R/G89D/R91D/V118C RNase 1: variant of human RNase 1 with substitutions R4C, K7A, G38R, R39D, L86E, N88R, G89D, R91D, V118C (protein)
chain: B1 chain with R4C, K7A, V118C
% TGI ([6]; Table 4, FIG. 3): 36%
(Final − start) ([6]; Table 4, FIG. 3): 478 mm^3
Final volume ([6]; Table 4, FIG. 3): 552 mm^3
(Final − start)/Control ([6]; Table 4, FIG. 3): 0.36
Starting volume ([6]; Table 4, FIG. 3): 74 mm^3
tumor growth inhibition (in words) [6]: demonstrated measurable tumor growth inhibition

B3: L86E/N88R/G89D/R91D RNase 1: variant of human RNase 1 with substitutions L86E, N88R, G89D, R91D (protein)
chain: B1 chain with R38G, D39R
% TGI ([6]; Table 2, FIG. 1): 40%
(Final − start) ([6]; Table 2, FIG. 1): 540 mm^3
Final volume ([6]; Table 2, FIG. 1): 624 mm^3
(Final − start)/Control ([6]; Table 2, FIG. 1): 0.60
Starting volume ([6]; Table 2, FIG. 1): 84 mm^3
tumor growth inhibition (in words) [6]: displayed tumor growth inhibition

B4: R4C/G38R/R39D/L86E/N88R/G89D/R91D/V118C RNase 1: variant of human RNase 1 with substitutions R4C, G38R, R39D, L86E, N88R, G89D, R91D, V118C (protein)
chain: B1 chain with R4C, V118C
% TGI ([6]; Table 3, FIG. 2): 48%
(Final − start) ([6]; Table 3, FIG. 2): 1022 mm^3
Final volume ([6]; Table 3, FIG. 2): 1130 mm^3
(Final − start)/Control ([6]; Table 3, FIG. 2): 0.52
Starting volume ([6]; Table 3, FIG. 2): 108 mm^3
tumor growth inhibition (in words) [6]: impacted tumor growth
